# Measurements as given in paper PMC12516728, “Harnessing the Estradienone Scaffold to Develop Dual GPBAR1 and LIFR Modulators for Liver Fibrosis” (Journal of Medicinal Chemistry, 2025).
# Like-named read-outs stand apart in the source and are kept apart here.
# Legend:
# [1] = biological target: T1, LIF-LIFR interaction (recombinant human LIFR His-Tag / biotinylated LIF) (Homo sapiens, UniProt P42702); experiment: Cell-free AlphaScreen assay of LIF-LIFR interaction; format: binding; conditions: for inhibition at 10 µM: read-out: % LIFR inhibition (10 μM); for inhibition at 50 µM: read-out: % LIFR inhibition (50 μM)
# T1 construct: purchased Sino Biological (LIFR); R&D Systems (LIF)
# T1 sequence (P42702 45-833 limits assumed): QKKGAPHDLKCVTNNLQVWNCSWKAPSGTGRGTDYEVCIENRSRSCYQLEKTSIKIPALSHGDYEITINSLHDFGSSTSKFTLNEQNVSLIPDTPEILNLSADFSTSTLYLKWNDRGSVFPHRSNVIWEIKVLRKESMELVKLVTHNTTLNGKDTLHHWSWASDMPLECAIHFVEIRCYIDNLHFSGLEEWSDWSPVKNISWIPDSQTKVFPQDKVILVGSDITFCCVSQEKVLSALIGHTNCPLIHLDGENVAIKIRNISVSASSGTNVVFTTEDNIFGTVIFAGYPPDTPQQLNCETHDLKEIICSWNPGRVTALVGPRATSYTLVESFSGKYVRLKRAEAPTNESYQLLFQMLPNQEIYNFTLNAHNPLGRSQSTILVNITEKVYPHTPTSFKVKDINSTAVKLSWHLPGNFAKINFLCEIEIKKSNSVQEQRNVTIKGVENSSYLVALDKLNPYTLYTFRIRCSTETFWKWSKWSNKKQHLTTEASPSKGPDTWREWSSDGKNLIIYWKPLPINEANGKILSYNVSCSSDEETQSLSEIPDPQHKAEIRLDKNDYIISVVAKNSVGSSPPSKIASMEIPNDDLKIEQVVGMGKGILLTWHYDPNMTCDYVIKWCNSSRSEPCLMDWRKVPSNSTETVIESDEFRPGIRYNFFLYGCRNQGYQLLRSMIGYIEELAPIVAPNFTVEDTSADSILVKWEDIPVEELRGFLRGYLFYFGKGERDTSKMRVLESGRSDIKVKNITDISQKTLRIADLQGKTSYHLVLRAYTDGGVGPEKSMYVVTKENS
# Method: Recombinant human LIFR (His-Tag) and LIF (biotinylated) were purchased from Sino Biologicals (Sino Biological Europe GmbH, Dusseldorf, Germany) and R&D Systems (Abingdon, UK), respectively, and both were reconstituted as required by the manufacturer. Inhibition of LIFR/LIF binding was measured by AlphaScreen, in white, low-volume, 384-well AlphaPlates (PerkinElmer, Waltham, MA, USA) using a final volume of 15 μL and an assay buffer containing 25 mM Hepes (pH 7.4), 100 mM NaCl, and 0.005% Kathon. The concentration of DMSO in each well was maintained at 5% v/v. […] Then, streptavidin donor beads were added (final concentration 20 ng/μL), and the plate was incubated in the dark for 2 h and then read in an EnSpire Alpha multimode plate reader (PerkinElmer, Waltham, MA, USA). […] Each concentration was tested in triplicate (N = 3). When present, outliers were removed, resulting in N = 2. Data, reported as averaged intensity values ± standard deviation and N, were exploited to fit the curves through GraphPad Prism 8.
# GPBAR1 = biological target: T2, GPBAR1 (Homo sapiens, UniProt Q8TDU6); experiment: Luciferase reporter (transactivation) assay on HEK293T cells transfected with GPBAR1; format: cell-based; conditions: HEK-293T, relative to TLCA (10 μM) as 100%, mean ± SD, na = not active, read-out: GPBAR1 eff % (10 μM)
# T2 construct: expressed in transfected cells; host or cells: HEK293T
# T2 sequence (Q8TDU6 1-330): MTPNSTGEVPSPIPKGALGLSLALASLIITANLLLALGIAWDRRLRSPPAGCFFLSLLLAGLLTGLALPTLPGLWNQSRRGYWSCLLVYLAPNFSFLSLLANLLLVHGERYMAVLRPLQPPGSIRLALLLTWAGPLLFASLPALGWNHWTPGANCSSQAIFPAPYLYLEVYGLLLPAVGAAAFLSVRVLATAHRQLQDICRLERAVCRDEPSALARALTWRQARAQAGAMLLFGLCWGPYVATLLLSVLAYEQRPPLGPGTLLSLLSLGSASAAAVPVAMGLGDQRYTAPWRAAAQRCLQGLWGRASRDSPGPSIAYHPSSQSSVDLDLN
# Method: (§1) Hek293T cells, obtained from ATCC (Manassas, VA, USA), were cultured in a D-MEM medium (Sigma-Merk Life Science S.r.l., Milan, Italy) enriched with 10% fetal bovine serum, 1% L-glutamine, and 1% penicillin/streptomycin. HEPG2 cells, also from ATCC, were grown in an MEM medium (Euroclone, reference ECB2071L) supplemented with 10% fetal bovine serum (Euroclone, reference ECS5000L), 1% L-glutamine (Euroclone, reference ECB3000D), and 1% penicillin/streptomycin (Euroclone, reference ECB3001D). All cultures were maintained in a humidified environment with 5% CO2 at 37 °C. Additionally, it was confirmed that the cells were free from Mycoplasma contamination, as verified using the Mycoplasma PCR Detection Kit (Aurogene, reference G238).
# (§2) The luciferase reporter gene assay protocol takes place over four days. On the first day, HEPG2 or HEK293T cells are seeded in a 24-well plate at a density of 7.5 × 10^4 cells/well for HEPG2 or 2.5 × 10^4 cells/well for HEK293T. On the second day, cells are transiently transfected, preparing a separate mix for each receptor. To assess the phosphorylation of STAT3 signaling, HEPG2 cells were transfected with 200 ng of the reporter vector containing the Pgl4.47 response element, along with 100 ng each of LIFR, IL6ST (gp130), and pGL4.70 (Promega, Madison, WI), a vector encoding the human Renilla gene. The following day, the cells were stimulated with 10 ng/mL LIF, either alone or in combination with 2o at concentrations of 0.1, 1, 10, 25, and 50 μM, to generate a dose–response curve. For GPBAR1 agonism, HEK293T cells were transfected with 200 ng of the reporter vector pG29-CRE-LUC, 150 ng of pcmvsport-hTGR5, and 150 ng of pGL4.70, the human Renilla gene. The following day, cells were stimulated with 10 μM TLCA alone as a positive control and compound 2o at concentrations of 1 and 10 nM, as well as 0.1, 1, 2.5, 5, 10, 20, and 30 μM, to generate a dose–response curve. On the final day, cellular lysates were analyzed for luciferase and Renilla activities using the Dual-Luciferase Reporter Assay System (Promega, Madison, WI). pLuminescence was measured with a Glomax 20/20 luminometer (Promega, Madison, WI), and luciferase activities were normalized to Renilla activities.
# LIFR = biological target: T3, LIFR (Homo sapiens, UniProt P42702); experiment: Luciferase reporter (transactivation) assay on HepG2 cells transfected with LIFR; format: cell-based; conditions: relative to LIF as 100%, mean ± SD
# T3 construct: expressed in transfected cells; host or cells: HepG2
# T3 sequence (P42702 45-1097): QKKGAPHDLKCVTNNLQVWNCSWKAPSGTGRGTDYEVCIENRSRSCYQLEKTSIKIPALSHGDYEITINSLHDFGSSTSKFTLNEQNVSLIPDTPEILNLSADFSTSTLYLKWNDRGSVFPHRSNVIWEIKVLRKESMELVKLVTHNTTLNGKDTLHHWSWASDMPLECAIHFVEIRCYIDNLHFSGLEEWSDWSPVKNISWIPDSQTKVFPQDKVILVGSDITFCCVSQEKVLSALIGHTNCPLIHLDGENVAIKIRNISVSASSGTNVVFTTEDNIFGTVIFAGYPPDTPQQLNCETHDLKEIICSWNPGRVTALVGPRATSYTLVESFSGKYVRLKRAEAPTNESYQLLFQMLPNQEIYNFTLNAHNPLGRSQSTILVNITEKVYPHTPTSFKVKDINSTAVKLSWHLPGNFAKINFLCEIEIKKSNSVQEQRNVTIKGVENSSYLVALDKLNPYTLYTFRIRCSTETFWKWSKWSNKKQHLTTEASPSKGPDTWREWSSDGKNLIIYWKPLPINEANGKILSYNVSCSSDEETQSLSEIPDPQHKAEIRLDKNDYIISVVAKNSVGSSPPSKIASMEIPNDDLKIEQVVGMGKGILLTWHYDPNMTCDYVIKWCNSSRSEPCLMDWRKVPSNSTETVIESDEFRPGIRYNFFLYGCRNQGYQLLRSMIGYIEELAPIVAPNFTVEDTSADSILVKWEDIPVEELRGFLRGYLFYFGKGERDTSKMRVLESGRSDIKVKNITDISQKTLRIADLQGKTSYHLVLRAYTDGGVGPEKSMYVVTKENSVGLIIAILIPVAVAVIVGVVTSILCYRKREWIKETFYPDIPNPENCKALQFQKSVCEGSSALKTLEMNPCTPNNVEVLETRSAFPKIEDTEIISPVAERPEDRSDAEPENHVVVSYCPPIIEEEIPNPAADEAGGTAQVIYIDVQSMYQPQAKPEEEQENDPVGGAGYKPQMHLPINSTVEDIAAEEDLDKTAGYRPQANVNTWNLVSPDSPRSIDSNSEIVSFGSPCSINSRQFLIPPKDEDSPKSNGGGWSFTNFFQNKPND
# Method: as §1, §2
"inhibition at 10 µM ([1]; 10 μM, LIF-LIFR signal without compound set as 100% interaction, mean ± SD) [%]","inhibition at 50 µM ([1]; 50 μM, LIF-LIFR signal without compound set as 100% interaction, mean ± SD) [%]","IC50 ([1]; inhibition of LIF-LIFR interaction, ± SD, read-out: IC50) [µM]",Compound,IC50 [1] [µM],inhibition at 10 µM [1] [%],inhibition at 50 µM [1] [%],Emax at 10 µM (GPBAR1) [%],inhibition at 10 µM (LIFR) [%]
70.5 ± 3.7,94.6 ± 7.3,0.366 ± 0.063,"CC#C[C@]1(O)CC[C@H]2[C@@H]3CCC4=CC(=O)CCC4=C3[C@@H](c3ccc(N(C)C)cc3)C[C@@]21C [Mifepristone, mifepristone, reference compound]",,,,,
,,,CN(C)c1ccc([C@H]2C[C@]3(C)C(=O)CC[C@H]3[C@@H]3CCC4=CC(=O)CCC4=C32)cc1 [Compound 1b],0.535 ± 0.209,60 ± 14.7,84.3 ± 1.4,21.7 ± 0.3,104 ± 2.5
,,,C[C@]12C[C@H](c3ccc(-c4ccc(Br)nc4)cc3)C3=C4CCC(=O)C=C4CC[C@H]3[C@@H]1CCC2=O [Compound 2d],5.54 ± 1.39,42.1 ± 2.3,64.4 ± 7.5,,88.8 ± 3.4
,,,"C[C@]12C[C@H](c3ccc(C4CC4)cc3)C3=C4CCC(=O)C=C4CC[C@H]3[C@@H]1CCC2=O [Compound 1g, 11β-(4-Cyclopropylphenyl)-estra-4,9-dien-3,17-dione]",9.42 ± 2.32,45.1 ± 1.9,62.1 ± 6.1,16.5 ± 1.5,51.1 ± 1.4
,,,"C[C@]12C[C@H](c3ccccc3)C3=C4CCC(=O)C=C4CC[C@H]3[C@@H]1CCC2=O [Compound 1c, 11β-Phenylestra-4,9-dien-3,17-dione]",26.9 ± 3.12,34.3 ± 11.2,40.5 ± 4.18,35 ± 1.5,76.8 ± 6.7
,,,C[C@]12C[C@H](c3ccc(-c4ccccc4)cc3)C3=C4CCC(=O)C=C4CC[C@H]3[C@@H]1CCC2=O [Compound 1a],1.42 ± 0.2,62.4 ± 9.2,76.4 ± 4.1,44.8 ± 5.1,33.8 ± 3.7
,,,"COc1ccc(C[C@H]2C[C@]3(C)C(=O)CC[C@H]3[C@@H]3CCC4=CC(=O)CCC4=C23)cc1 [Compound 1d, 11β-(4-Methoxybenzyl)estra-4,9-dien-3,17-dione]",43.1 ± 4.6,26.5 ± 6.2,41.1 ± 8,,92 ± 7
,,,"C[C@]12C[C@H](Cc3ccc(O)cc3)C3=C4CCC(=O)C=C4CC[C@H]3[C@@H]1CCC2=O [Compound 1e, 11β-(4-Hydroxybenzyl)estra-4,9-dien-3,17-dione]",45.6 ± 10.5,29.3 ± 6.7,35.1 ± 13,9 ± 4,29.1 ± 1.4
,,,COC(=O)c1cccc(-c2ccc([C@H]3C[C@]4(C)C(=O)CC[C@H]4[C@@H]4CCC5=CC(=O)CCC5=C43)cc2)c1 [Compound 2s],0.159 ± 0.06,63.6 ± 4.1,74.3 ± 14.1,> 50,80.8 ± 0.9
,,,C[C@]12C[C@H](c3ccc(-c4cccc(C(=O)O)c4)cc3)C3=C4CCC(=O)C=C4CC[C@H]3[C@@H]1CCC2=O [Compound 2t],24.8 ± 2.8,22.8 ± 5.1,62.3 ± 7.3,20.4 ± 1.4,38.7 ± 0.6
,,,"C[C@]12C[C@H](c3ccc(I)cc3)C3=C4CCC(=O)C=C4CC[C@H]3[C@@H]1CCC2=O [Compound 1f, 11β-(4-Iodophenyl)estra-4,9-dien-3,17-dione]",9.78 ± 1.75,45.4 ± 1.3,61.3 ± 7.5,,89.9 ± 1.2
